Measured values published in patent US9101638B2, “Boronic acid derivatives and therapeutic uses thereof” (Rempex Pharmaceuticals, Inc., priority 2013, dated 2015).
Like-named read-outs stand apart in the source and are kept apart here.

Experiments:
OXA-48 = OXA-48 (Klebsiella pneumoniae, UniProt Q6XEC0); assay: Inhibition of nitrocefin cleavage by purified OXA-48; type: biochemical; details: nitrocefin reporter substrate, purified enzyme; read-out: Ki (OXA-48, NCF)
Summary of the method: (§1)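 Steps: enzyme plus inhibitor dilutions in reaction buffer; 10 min at room temperature; add nitrocefin; read absorbance at 490 nm each 10 sec for 10 min.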

Neutrophil elastase = molecular target: T1, Neutrophil elastase (Homo sapiens, UniProt P08246); assay: Serine protease inhibition: neutrophil elastase; type: biochemical, mammalian; details: Table 8B; read-out: IC50 Neutrophil elastase
T1 construct: purchased Calbiochem 324681
T1 sequence (P08246 30-267): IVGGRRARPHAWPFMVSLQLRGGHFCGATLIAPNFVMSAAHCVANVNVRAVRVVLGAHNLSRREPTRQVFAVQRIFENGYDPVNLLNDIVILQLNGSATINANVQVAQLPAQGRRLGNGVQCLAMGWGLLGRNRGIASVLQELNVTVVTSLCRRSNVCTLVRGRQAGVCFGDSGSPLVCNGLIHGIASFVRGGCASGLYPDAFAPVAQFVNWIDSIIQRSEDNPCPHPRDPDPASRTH
Experimental: (§2) The effect of selected BLIs on the enzymatic activity of some common mammalian serine proteases was evaluated.
(§3) 50 μl of the diluted enzyme was mixed with 50 μl of inhibitor at various concentrations and 50 μl of corresponding buffer (Table 7). Reaction mixtures were incubated for 10 min at 37° C. Subsequently, 50 μl of corresponding substrate (Table 7) was added and absorbance or fluorescence was monitored for 30 min on SpectraMax M2 plate reader (Molecular Devices). 4-(2-Aminoethyl)benzenesulfonyl fluoride hydrochloride (AEBSF) and leupeptin were used as positive controls. Rates of reaction were calculated and presented relative to “no treatment” control.

PAM1032/KPC-2 = assay: Biapenem potentiation in PAM1032/KPC-2 (MexAB-OprM overexpressed); type: cell-based, Pseudomonas aeruginosa
Experimental: Efflux of BLIs from Pseudomonas aeruginosa by the MexAB-OprM efflux pump was also evaluated. […] Due to expression of KPC-2 both strains became resistant to biapenem. […] Potency of BLIs to potentiate biapenem in these strains was determined. […] The ratio of MPC64 values for each BLI in PAM1032/KPC-2 (efflux proficient) and PAM1154/KPC-2 (efflux deficient) was determined to generate the Efflux Index (EI).

Urokinase = molecular target: T2, Urokinase (Homo sapiens, UniProt P00749); assay: Serine protease inhibition: urokinase; type: biochemical, mammalian; details: Table 8A, class symbols; read-out: IC50 Urokinase
T2 construct: purchased Calbiochem 672112
Experimental: as §2, §3

P99 = P99 (Enterobacter cloacae, UniProt P05364); assay: Inhibition of nitrocefin cleavage by purified P99; type: biochemical; details: nitrocefin reporter substrate, purified enzyme; read-out: Ki (P99, NCF)
Experimental: (§4) Purified enzymes were mixed with various concentrations of inhibitors in reaction buffer and incubated for 10 min at room temperature. Nitrocefin was added and substrate cleavage profiles were recorded at 490 nm every 10 sec for 10 min.

CathepsinG = molecular target: T3, CathepsinG (Homo sapiens, UniProt P08311); assay: Serine protease inhibition: cathepsin G; type: biochemical, mammalian; details: Table 8B
T3 construct: purchased EMD Millipore 219373
T3 sequence (P08311 21-244): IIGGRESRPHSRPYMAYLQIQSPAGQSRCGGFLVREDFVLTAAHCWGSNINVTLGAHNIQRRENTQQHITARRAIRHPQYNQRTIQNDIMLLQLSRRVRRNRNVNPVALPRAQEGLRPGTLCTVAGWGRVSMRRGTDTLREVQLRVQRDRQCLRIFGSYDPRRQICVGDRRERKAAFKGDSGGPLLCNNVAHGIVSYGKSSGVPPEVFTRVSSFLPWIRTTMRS
Experimental: as §2, §3

HtrA2 = molecular target: T4, HtrA2 (Homo sapiens, UniProt O43464); assay: Serine protease inhibition: HtrA2; type: biochemical, mammalian; details: Table 8B; read-out: IC50 HtrA2
T4 sequence (O43464 134-458): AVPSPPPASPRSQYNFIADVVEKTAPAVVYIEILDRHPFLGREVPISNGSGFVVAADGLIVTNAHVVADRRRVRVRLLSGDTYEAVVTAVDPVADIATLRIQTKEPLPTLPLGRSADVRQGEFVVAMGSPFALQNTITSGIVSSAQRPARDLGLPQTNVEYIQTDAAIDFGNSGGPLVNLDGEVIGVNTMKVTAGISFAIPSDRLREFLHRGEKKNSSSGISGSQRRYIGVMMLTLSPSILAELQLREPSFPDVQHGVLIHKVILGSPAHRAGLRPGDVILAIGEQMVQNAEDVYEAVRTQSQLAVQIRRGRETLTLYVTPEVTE
Experimental: as §2, §3

ECL1002 = assay: Potentiation of aztreonam, strain ECL1002; type: cell-based; details: minimum BLI concentration inhibiting growth with 4 μg/mL aztreonam
KP1009 (CTX-M-15) = assay: Potentiation of aztreonam, strain KP1009; type: cell-based
Trypsin = molecular target: T5, Trypsin (Bos taurus, UniProt P00760); assay: Serine protease inhibition: trypsin; type: biochemical, mammalian; details: Table 8A, class symbols; read-out: IC50 Trypsin
T5 construct: purchased Calbiochem 6502
T5 sequence (P00760 24-246): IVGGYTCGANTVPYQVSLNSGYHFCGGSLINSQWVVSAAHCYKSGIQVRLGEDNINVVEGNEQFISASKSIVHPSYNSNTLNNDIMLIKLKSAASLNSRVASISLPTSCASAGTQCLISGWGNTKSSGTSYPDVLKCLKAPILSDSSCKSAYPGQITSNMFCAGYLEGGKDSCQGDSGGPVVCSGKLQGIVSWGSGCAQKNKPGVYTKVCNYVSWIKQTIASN
Experimental: as §2, §3

Plasmin = molecular target: T6, Plasmin (Homo sapiens, UniProt P00747); assay: Serine protease inhibition: plasmin; type: biochemical, mammalian; details: Table 8A, class symbols; read-out: IC50 Plasmin
T6 construct: Plasmin; MPBio; 19419890; purchased MPBio 19419890
Experimental: as §2, §3

CMY-2 = CMY-2 (Klebsiella pneumoniae, UniProt Q48434); assay: Inhibition of nitrocefin cleavage by purified CMY-2; type: biochemical; details: nitrocefin reporter substrate, purified enzyme; read-out: Ki (CMY-2, NCF)
Experimental: as §4

EC1010 (CMY-6) = assay: Potentiation of aztreonam, strain EC1010; type: cell-based
ec302 (TEM-10) = assay: Potentiation of tigemonam, strain ec302; type: cell-based
CTX-M-14 = CTX-M-14 (Escherichia coli, UniProt Q9L5C7); assay: Inhibition of nitrocefin cleavage by purified CTX-M-14; type: biochemical; details: nitrocefin reporter substrate, purified enzyme; read-out: Ki (CTX-M-14, NCF)
Summary of the method: as §1

[1] = BLI potency to decrease biapenem MIC 64-fold, 32 to 0.5 μg/ml, efflux proficient strain

T6 sequence (P00747 581-810 limits assumed, species assumed): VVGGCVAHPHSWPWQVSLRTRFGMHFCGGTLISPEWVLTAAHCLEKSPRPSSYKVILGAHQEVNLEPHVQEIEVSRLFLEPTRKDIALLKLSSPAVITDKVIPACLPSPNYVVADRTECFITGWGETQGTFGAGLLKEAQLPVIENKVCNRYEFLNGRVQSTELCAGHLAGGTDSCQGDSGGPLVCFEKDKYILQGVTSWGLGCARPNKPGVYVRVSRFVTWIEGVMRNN
T6 sequence (P00747 97-580 partner limits assumed, species assumed): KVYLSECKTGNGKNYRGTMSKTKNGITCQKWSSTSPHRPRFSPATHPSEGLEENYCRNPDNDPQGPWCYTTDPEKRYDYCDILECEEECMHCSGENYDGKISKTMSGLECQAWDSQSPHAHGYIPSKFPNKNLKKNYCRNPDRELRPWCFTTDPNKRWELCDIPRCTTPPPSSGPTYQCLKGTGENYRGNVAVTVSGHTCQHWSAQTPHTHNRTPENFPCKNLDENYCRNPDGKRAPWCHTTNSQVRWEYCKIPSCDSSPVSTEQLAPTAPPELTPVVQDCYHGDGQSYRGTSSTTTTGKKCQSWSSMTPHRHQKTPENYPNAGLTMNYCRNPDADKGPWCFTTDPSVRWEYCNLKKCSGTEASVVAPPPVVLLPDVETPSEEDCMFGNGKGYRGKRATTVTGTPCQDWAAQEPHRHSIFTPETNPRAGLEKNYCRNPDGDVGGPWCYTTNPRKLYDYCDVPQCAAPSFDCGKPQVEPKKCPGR
Chain of CTX-M-14 (Q9L5C7 entry or part of it): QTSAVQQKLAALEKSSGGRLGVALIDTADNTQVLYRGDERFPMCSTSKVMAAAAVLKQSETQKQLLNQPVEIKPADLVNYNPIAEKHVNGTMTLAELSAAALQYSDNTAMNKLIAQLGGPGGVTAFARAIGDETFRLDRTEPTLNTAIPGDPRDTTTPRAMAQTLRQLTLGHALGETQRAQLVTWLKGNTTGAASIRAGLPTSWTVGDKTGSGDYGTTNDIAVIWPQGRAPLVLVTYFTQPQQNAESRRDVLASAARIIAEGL
Chain of OXA-48 (Q6XEC0 23-265 limits assumed): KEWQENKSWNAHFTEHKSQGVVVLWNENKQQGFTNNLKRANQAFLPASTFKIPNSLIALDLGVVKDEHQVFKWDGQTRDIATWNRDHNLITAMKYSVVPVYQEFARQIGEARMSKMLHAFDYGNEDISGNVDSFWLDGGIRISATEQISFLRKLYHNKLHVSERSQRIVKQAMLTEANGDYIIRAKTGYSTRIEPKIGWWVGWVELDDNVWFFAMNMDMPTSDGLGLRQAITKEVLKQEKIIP
Chain of P99 (P05364 21-381): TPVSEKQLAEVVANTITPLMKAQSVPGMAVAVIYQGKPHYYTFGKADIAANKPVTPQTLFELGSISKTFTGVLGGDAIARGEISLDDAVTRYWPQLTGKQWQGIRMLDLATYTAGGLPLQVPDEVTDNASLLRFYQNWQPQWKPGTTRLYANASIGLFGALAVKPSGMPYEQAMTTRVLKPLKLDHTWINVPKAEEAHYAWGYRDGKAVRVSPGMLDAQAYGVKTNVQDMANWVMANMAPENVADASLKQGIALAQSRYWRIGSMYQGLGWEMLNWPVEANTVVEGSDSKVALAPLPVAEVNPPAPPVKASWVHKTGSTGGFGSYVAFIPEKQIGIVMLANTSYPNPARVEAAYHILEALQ
Chain of CMY-2 (Q48434 21-381, species assumed): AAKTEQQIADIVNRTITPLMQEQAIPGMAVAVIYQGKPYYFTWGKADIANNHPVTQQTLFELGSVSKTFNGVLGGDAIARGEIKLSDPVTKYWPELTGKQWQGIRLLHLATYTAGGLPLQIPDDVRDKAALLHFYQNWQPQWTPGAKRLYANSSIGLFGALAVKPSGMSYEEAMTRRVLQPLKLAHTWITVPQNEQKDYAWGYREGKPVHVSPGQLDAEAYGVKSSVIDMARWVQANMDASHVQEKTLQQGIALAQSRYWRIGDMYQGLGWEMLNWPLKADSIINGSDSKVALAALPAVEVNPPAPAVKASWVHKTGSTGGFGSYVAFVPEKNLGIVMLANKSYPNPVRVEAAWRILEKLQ

Structure (SMILES)	Ki (OXA-48) [µM]	IC50 (Neutrophil elastase) [µM]	PAM1032/KPC-2 Biapenem MPC64 (PAM1032/KPC-2; [1])	IC50 (Urokinase) [µM]	Ki (P99) [µM]	IC50 (CathepsinG) [µM]	IC50 (HtrA2) [µM]	AZT MPC4 ECL1002 (ECL1002)	AZT MPC4 CTX-M-15 KP1009 (KP1009 (CTX-M-15))	IC50 (Trypsin) [µM]	IC50 (Plasmin) [µM]	Ki (CMY-2) [µM]	AZT MPC4 CMY-6 EC1010 (EC1010 (CMY-6))	TIG MPC4 TEM-10 ec302 (ec302 (TEM-10))	Ki (CTX-M-14) [µM]	PAM1032/KPC-2 Biapenem MPC64 (PAM1032/KPC-2)
O=C(CSC(F)F)N[C@H]1Cc2cccc(C(=O)O)c2OB1O [Compound 3, (R)-3-(2-(difluoromethylthio)acetamido)-2-hydroxy-3,4-dihydro-2H-benzo[e][1,2]oxaborinine-8-carboxylic acid]	< 0.001	15 to 500	Z (Z Greater than 40)	> 800	< 0.001	< 15	> 500	Y (Y = MIC of 1 μg/mL to 10 μg/mL)	Y (key: X = MIC of less than 1 μg/mL; Y = MIC of 1 μg/mL to 10 μg/mL; Z = MIC of greater than 10 μg/mL)	> 800	> 800	–	–	–	–	–
CSC(=O)N[C@H]1Cc2cccc(C(=O)O)c2OB1O [Compound 11, (R)-2-hydroxy-3-(methylthiocarbonylamino)-3,4-dihydro-2H-benzo[e][1,2]oxaborinine-8-carboxylic acid]	< 0.001	> 500	Z (Z Greater than 40)	> 800	< 0.001	15 to 500	–	Y (Y = MIC of 1 μg/mL to 10 μg/mL)	Y (key: X = MIC of less than 1 μg/mL; Y = MIC of 1 μg/mL to 10 μg/mL; Z = MIC of greater than 10 μg/mL)	> 800	> 800	< 0.001	Y (key: X = MIC of less than 1 μg/mL; Y = MIC of 1 μg/mL to 10 μg/mL; Z = MIC of greater than 10 μg/mL)	Z (key: X = MIC of less than 1 μg/mL; Y = MIC of 1 μg/mL to 10 μg/mL; Z = MIC of greater than 10 μg/mL)	–	–
Nc1nnc(SCC(=O)N[C@H]2Cc3cccc(C(=O)O)c3OB2O)s1 [Compound 5, (R)-3-(2-(5-amino-1,3,4-thiadiazol-2-ylthio)acetamido)-2-hydroxy-3,4-dihydro-2H-benzo[e][1,2]oxaborinine-8-carboxylic acid]	–	> 500	Y (Y = 10 to 40)	> 800	–	< 15	> 500	Y (Y = MIC of 1 μg/mL to 10 μg/mL)	X (key: X = MIC of less than 1 μg/mL; Y = MIC of 1 μg/mL to 10 μg/mL; Z = MIC of greater than 10 μg/mL)	> 800	> 800	–	X (key: X = MIC of less than 1 μg/mL; Y = MIC of 1 μg/mL to 10 μg/mL; Z = MIC of greater than 10 μg/mL)	Y (key: X = MIC of less than 1 μg/mL; Y = MIC of 1 μg/mL to 10 μg/mL; Z = MIC of greater than 10 μg/mL)	0.001 to 0.01	–
O=C(Cc1cccs1)N[C@H]1Cc2cccc(C(=O)O)c2OB1O [CPD A, reference compound]	< 0.001	15 to 500	Z (Z Greater than 40)	> 800	–	< 15	> 500	Y (Y = MIC of 1 μg/mL to 10 μg/mL)	–	> 800	> 800	< 0.001	–	–	< 0.001	–
O=CN[C@H]1Cc2cccc(C(=O)O)c2OB1O [Compound 4, (R)-3-formamido-2-hydroxy-3,4-dihydro-2H-benzo[e][1,2]oxaborinine-8-carboxylic acid]	0.001 to 0.01	> 500	–	> 800	0.001 to 0.01	15 to 500	> 500	Y (Y = MIC of 1 μg/mL to 10 μg/mL)	–	> 800	> 800	0.001 to 0.01	X (key: X = MIC of less than 1 μg/mL; Y = MIC of 1 μg/mL to 10 μg/mL; Z = MIC of greater than 10 μg/mL)	–	0.001 to 0.01	X (key: X = Less than 10; Y = 10 to 40; Z Greater than 40)
O=C(CSc1nncs1)N[C@H]1Cc2cccc(C(=O)O)c2OB1O [Compound 7, (R)-3-(2-(1,3,4-thiadiazol-2-ylthio)acetamido)-2-hydroxy-3,4-dihydro-2H-benzo[e][1,2]oxaborinine-8-carboxylic acid]	–	> 500	Z (Z Greater than 40)	> 800	< 0.001	15 to 500	–	Y (Y = MIC of 1 μg/mL to 10 μg/mL)	X (key: X = MIC of less than 1 μg/mL; Y = MIC of 1 μg/mL to 10 μg/mL; Z = MIC of greater than 10 μg/mL)	> 800	> 800	< 0.001	X (key: X = MIC of less than 1 μg/mL; Y = MIC of 1 μg/mL to 10 μg/mL; Z = MIC of greater than 10 μg/mL)	Y (key: X = MIC of less than 1 μg/mL; Y = MIC of 1 μg/mL to 10 μg/mL; Z = MIC of greater than 10 μg/mL)	< 0.001	–
[N-]=[N+]=NCC(=O)N[C@H]1Cc2cccc(C(=O)O)c2OB1O [Compound 8, (R)-3-(2-azidoacetamido)-2-hydroxy-3,4-dihydro-2H-benzo[e][1,2]oxaborinine-8-carboxylic acid]	< 0.001	> 500	Y (Y = 10 to 40)	> 800	–	< 15	> 500	Y (Y = MIC of 1 μg/mL to 10 μg/mL)	X (key: X = MIC of less than 1 μg/mL; Y = MIC of 1 μg/mL to 10 μg/mL; Z = MIC of greater than 10 μg/mL)	> 800	> 800	–	X (key: X = MIC of less than 1 μg/mL; Y = MIC of 1 μg/mL to 10 μg/mL; Z = MIC of greater than 10 μg/mL)	Y (key: X = MIC of less than 1 μg/mL; Y = MIC of 1 μg/mL to 10 μg/mL; Z = MIC of greater than 10 μg/mL)	–	–
